According to patent US8952024B2, “Herbicidal pyrimidone derivatives” (E I du Pont de Nemours and Company, priority 2009, dated 2015):

Columns and labels:
Type in all cases: in vivo
[1] = test system: Surinam grass (Brachiaria decumbens); assay: Test B pre-/postemergence plant response
Description: (§1) Seeds of plant species selected from blackgrass (Alopecurus myosuroides), downy bromegrass (Bromus tectorum), green foxtail (Setaria viridis), Italian ryegrass (Lolium multiflorum), wheat (Triticum aestivum), wild oat (Avena fatua), deadnettle (henbit deadnettle, Lamium amplexicaule), galium (catchweed bedstraw, Galium aparine), bermudagrass (Cynodon dactylon), Surinam grass (Brachiaria decumbens), cocklebur (Xanthium strumarium), corn (Zea mays), large crabgrass (Digitaria sanguinalis), woolly cupgrass (Eriochloa villosa), giant foxtail (Setaria faberii), goosegrass (Eleusine indica), johnsongrass (Sorghum halepense), kochia (Kochia scoparia), lambsquarters (Chenopodium album), morningglory (Ipomoea coccinea), nightshade (eastern black nightshade, Solanum ptycanthum), yellow nutsedge (Cyperus esculentus), pigweed (Amaranthus retroflexus), ragweed (common ragweed, Ambrosia elatior), Russian thistle (Salsola kali), soybean (Glycine max), sunflower (common oilseed sunflower, Helianthus annuus) and velvetleaf (Abutilon theophrasti) were planted into a blend of loam soil and sand and treated preemergence with test compounds formulated in a non-phytotoxic solvent mixture which included a surfactant.
(§2) At the same time, plants selected from these crop and weed species and also winter barley (Hordeum vulgare), canarygrass (Phalaris minor), chickweed (Stellaria media) and windgrass (Apera spica-venti) were planted in pots containing Redi-Earth® planting medium (Scotts Company, 14111 Scottslawn Road, Marysville, Ohio 43041) comprising spaghnum peat moss, vermiculite, wetting agent and starter nutrients and treated with postemergence applications of some of the test chemicals formulated in the same manner. Plants ranged in height from 2 to 18 cm (1- to 4-leaf stage) for postemergence treatments.
(§3) Treated plants and controls were maintained in a greenhouse for 13 to 15 days, after which time all treated plants were visually evaluated and compared to controls. Plant response ratings, summarized in Table B, are based on a scale of 0 to 100 where 0 is no effect and 100 is complete control. A dash (-) response means no test result.

[2] = test system: bermudagrass (Cynodon dactylon); assay: Test B pre-/postemergence plant response
Description: as §1, §2, §3

[3] = test system: downy bromegrass (Bromus tectorum); assay: Test B pre-/postemergence plant response
Description: as §1, §2, §3

[4] = test system: lambsquarters (Chenopodium album); assay: Test B pre-/postemergence plant response
Description: as §1, §2, §3

[5] = test system: pigweed (Amaranthus retroflexus); assay: Test B pre-/postemergence plant response
Description: as §1, §2, §3

[6] = test system: wheat (Triticum aestivum); assay: Test B pre-/postemergence plant response
Description: as §1, §2, §3

[7] = test system: woolly cupgrass (Eriochloa villosa); assay: Test B pre-/postemergence plant response
Description: as §1, §2, §3

[8] = test system: yellow nutsedge (Cyperus esculentus); assay: Test B pre-/postemergence plant response
Description: as §1, §2, §3

[9] = test system: barnyardgrass (Echinochloa crus-galli); assay: Test B flooded paddy test; details: for Plant response rating, Flood, Barnyardgrass: 250 g ai/ha, flooded paddy test, visual rating on 0 to 100 scale (0 no effect, 100 complete control) after 13 to 15 days; for Plant response rating, Barnyardgrass: Flood (flooded paddy test), 62 g ai/ha, scale 0 to 100, 0 is no effect, 100 is complete control, 13 to 15 days
Outline: (§4)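 Post-flood paddy application: compounds are introduced into water 3 cm deep over the soil, reaching plants at the 2-leaf stage. The water level is maintained, and after 13–15 days under greenhouse conditions, response is judged by eye relative to controls, where 100 means complete control.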

[10] = test system: ducksalad (Heteranthera limosa); assay: Test B flooded paddy test; details: for Plant response rating, Flood, Ducksalad: 250 g ai/ha, flooded paddy test, visual rating on 0 to 100 scale (0 no effect, 100 complete control) after 13 to 15 days; for Plant response rating, Ducksalad: Flood (flooded paddy test), 62 g ai/ha, scale 0 to 100, 0 is no effect, 100 is complete control, 13 to 15 days
Outline: as §4

rice (Oryza sativa) = assay: Test B flooded paddy test; details: for Plant response rating, Flood, Rice: 250 g ai/ha, flooded paddy test, visual rating on 0 to 100 scale (0 no effect, 100 complete control) after 13 to 15 days; for Plant response rating, Rice: Flood (flooded paddy test), 62 g ai/ha, scale 0 to 100, 0 is no effect, 100 is complete control, 13 to 15 days
Outline: as §4

[11] = test system: umbrella sedge (Cyperus difformis); assay: Test B flooded paddy test; details: for Plant response rating, Flood, Sedge, Umbrella: 250 g ai/ha, flooded paddy test, visual rating on 0 to 100 scale (0 no effect, 100 complete control) after 13 to 15 days; for Plant response rating, Sedge, Umbrella: Flood (flooded paddy test), 62 g ai/ha, scale 0 to 100, 0 is no effect, 100 is complete control, 13 to 15 days
Outline: as §4

[12] = 250 g ai/ha, Preemergence, 0 to 100 scale
[13] = Postemergence, 62 g ai/ha, scale 0 (no effect) to 100 (complete control), 13 to 15 days
[14] = Postemergence, 125 g ai/ha, visual rating after 13 to 15 days, scale 0 (no effect) to 100 (complete control)
[15] = Preemergence, 31 g ai/ha, scale 0 to 100 (0 no effect, 100 complete control)
[16] = Preemergence, 125 g ai/ha, 0 to 100 scale
[17] = Postemergence, 250 g ai/ha, scale 0 to 100
[18] = Preemergence, 62 g ai/ha, scale 0 to 100 (0 no effect, 100 complete control)
[19] = Postemergence, 31 g ai/ha, scale 0 to 100 (0 no effect, 100 complete control)

Cc1c(Cl)cccc1-n1c(-c2ccccc2)ncc(C(=O)C2=C(O)CCCC2=O)c1=O [Compound 40]
35: Plant response rating, Nutsedge, Yellow [8, 13]
65: Nutsedge, Yellow plant response rating [8, 16]
98: Plant response rating, Surinam Grass [1, 14] | Plant response rating, Bermudagrass [2, 15] | Plant response rating, Pigweed [5, 13] | Plant response rating, Pigweed [5, 15] | Plant response rating, Cupgrass, Woolly [7, 14] | Cupgrass, Woolly plant response rating [7, 17]
70: Plant response rating, Bromegrass, Downy [3, 14] | Cupgrass, Woolly plant response rating [7, 16] | Plant response rating, Sedge, Umbrella [11]
90: Plant response rating, Surinam Grass [1, 12] | Plant response rating, Cupgrass, Woolly [7, 19] | Plant response rating, Flood, Ducksalad [10]
85: Surinam Grass plant response rating [1, 16] | Bromegrass, Downy plant response rating [3, 17] | Plant response rating, Cupgrass, Woolly [7, 12] | Plant response rating, Nutsedge, Yellow [8, 12] | Plant response rating, Flood, Sedge, Umbrella [11]
25: Plant response rating, Flood, Rice (rice (Oryza sativa))
40: Plant response rating, Surinam Grass [1, 15] | Plant response rating, Flood, Barnyardgrass [9]
100: Plant response rating, Bermudagrass [2, 12] | Plant response rating, Bermudagrass [2, 13] | Plant response rating, Bermudagrass [2, 14] | Bermudagrass plant response rating [2, 17] | Plant response rating, Bermudagrass [2, 18] | Bermudagrass plant response rating [2, 16] | Plant response rating, Lambsquarters [4, 12] | Plant response rating, Lambsquarters [4, 13] | Plant response rating, Lambsquarters [4, 14] | Lambsquarters plant response rating [4, 17] | Plant response rating, Lambsquarters [4, 15] | Plant response rating, Lambsquarters [4, 18] | Lambsquarters plant response rating [4, 16] | Plant response rating, Pigweed [5, 12] | Plant response rating, Pigweed [5, 14] | Pigweed plant response rating [5, 16]
10: Plant response rating, Bromegrass, Downy [3, 12] | Plant response rating, Nutsedge, Yellow [8, 15]
30: Plant response rating, Wheat [6, 14]
55: Plant response rating, Nutsedge, Yellow [8, 14]
5: Bromegrass, Downy plant response rating [3, 16]
50: Plant response rating, Bromegrass, Downy [3, 13] | Plant response rating, Cupgrass, Woolly [7, 18]
20: Plant response rating, Wheat [6, 13]
45: Plant response rating, Bromegrass, Downy [3, 19]
0: Plant response rating, Bromegrass, Downy [3, 15] | Plant response rating, Bromegrass, Downy [3, 18] | Plant response rating, Wheat [6, 15] | Wheat plant response rating [6, 16] | Plant response rating, Cupgrass, Woolly [7, 15] | Plant response rating, Barnyardgrass [9] | Plant response rating, Ducksalad [10] | Plant response rating, Rice (rice (Oryza sativa))
95: Plant response rating, Surinam Grass [1, 13] | Plant response rating, Cupgrass, Woolly [7, 13]

CCCCc1ncc(C(=O)C2=C(O)CCCC2=O)c(=O)n1-c1ccccc1 [Compound 42]
15: Plant response rating, Bromegrass, Downy [3, 14] | Plant response rating, Cupgrass, Woolly [7, 19]
5: Plant response rating, Bromegrass, Downy [3, 13] | Plant response rating, Wheat [6, 14] | Plant response rating, Cupgrass, Woolly [7, 12]
75: Plant response rating, Surinam Grass [1, 12] | Plant response rating, Bermudagrass [2, 13] | Nutsedge, Yellow plant response rating [8, 16]
25: Bromegrass, Downy plant response rating [3, 17] | Plant response rating, Cupgrass, Woolly [7, 14]
90: Plant response rating, Bermudagrass [2, 15]
10: Surinam Grass plant response rating [1, 16] | Plant response rating, Nutsedge, Yellow [8, 15]
60: Plant response rating, Nutsedge, Yellow [8, 13]
55: Cupgrass, Woolly plant response rating [7, 17]
70: Plant response rating, Bermudagrass [2, 19] | Plant response rating, Nutsedge, Yellow [8, 14]
98: Bermudagrass plant response rating [2, 17]
40: Plant response rating, Surinam Grass [1, 13]
30: Plant response rating, Ducksalad [10] | Plant response rating, Flood, Sedge, Umbrella [11] | Plant response rating, Sedge, Umbrella [11]
100: Plant response rating, Bermudagrass [2, 12] | Plant response rating, Bermudagrass [2, 18] | Bermudagrass plant response rating [2, 16] | Plant response rating, Lambsquarters [4, 12] | Plant response rating, Lambsquarters [4, 14] | Lambsquarters plant response rating [4, 17] | Plant response rating, Lambsquarters [4, 15] | Plant response rating, Lambsquarters [4, 18] | Lambsquarters plant response rating [4, 16] | Plant response rating, Pigweed [5, 12] | Plant response rating, Pigweed [5, 14] | Plant response rating, Pigweed [5, 15] | Pigweed plant response rating [5, 16]
85: Plant response rating, Nutsedge, Yellow [8, 12]
50: Plant response rating, Flood, Ducksalad [10]
20: Plant response rating, Cupgrass, Woolly [7, 13] | Plant response rating, Flood, Rice (rice (Oryza sativa))
95: Plant response rating, Bermudagrass [2, 14] | Plant response rating, Lambsquarters [4, 13] | Plant response rating, Pigweed [5, 13]
45: Plant response rating, Surinam Grass [1, 14]
0: Plant response rating, Surinam Grass [1, 15] | Plant response rating, Bromegrass, Downy [3, 12] | Plant response rating, Bromegrass, Downy [3, 19] | Plant response rating, Bromegrass, Downy [3, 15] | Plant response rating, Bromegrass, Downy [3, 18] | Bromegrass, Downy plant response rating [3, 16] | Plant response rating, Wheat [6, 12] | Plant response rating, Wheat [6, 13] | Plant response rating, Wheat [6, 15] | Wheat plant response rating [6, 16] | Plant response rating, Cupgrass, Woolly [7, 15] | Plant response rating, Cupgrass, Woolly [7, 18] | Cupgrass, Woolly plant response rating [7, 16] | Plant response rating, Flood, Barnyardgrass [9] | Plant response rating, Barnyardgrass [9] | Plant response rating, Rice (rice (Oryza sativa))

Cc1ccc(F)cc1-n1c(-c2ccccc2)ncc(C(=O)C2=C(O)CCCC2=O)c1=O [Compound 44]
75: Nutsedge, Yellow plant response rating [8, 16]
90: Surinam Grass plant response rating [1, 16] | Plant response rating, Nutsedge, Yellow [8, 12] | Plant response rating, Flood, Ducksalad [10] | Plant response rating, Flood, Sedge, Umbrella [11]
30: Plant response rating, Wheat [6, 14] | Plant response rating, Flood, Barnyardgrass [9]
100: Plant response rating, Surinam Grass [1, 12] | Plant response rating, Bermudagrass [2, 12] | Plant response rating, Bermudagrass [2, 15] | Plant response rating, Bermudagrass [2, 18] | Bermudagrass plant response rating [2, 16] | Plant response rating, Lambsquarters [4, 12] | Plant response rating, Lambsquarters [4, 15] | Plant response rating, Lambsquarters [4, 18] | Lambsquarters plant response rating [4, 16] | Plant response rating, Pigweed [5, 12] | Pigweed plant response rating [5, 16]
85: Bromegrass, Downy plant response rating [3, 17] | Plant response rating, Cupgrass, Woolly [7, 12] | Plant response rating, Cupgrass, Woolly [7, 14]
5: Plant response rating, Bromegrass, Downy [3, 12]
50: Plant response rating, Nutsedge, Yellow [8, 13] | Plant response rating, Nutsedge, Yellow [8, 14]
65: Plant response rating, Surinam Grass [1, 15]
10: Plant response rating, Wheat [6, 13]
20: Plant response rating, Rice (rice (Oryza sativa))
40: Plant response rating, Bromegrass, Downy [3, 19] | Plant response rating, Flood, Rice (rice (Oryza sativa))
98: Bermudagrass plant response rating [2, 17] | Lambsquarters plant response rating [4, 17] | Plant response rating, Pigweed [5, 14] | Plant response rating, Pigweed [5, 15]
80: Plant response rating, Bermudagrass [2, 19] | Plant response rating, Bromegrass, Downy [3, 14] | Plant response rating, Cupgrass, Woolly [7, 19] | Plant response rating, Cupgrass, Woolly [7, 13] | Cupgrass, Woolly plant response rating [7, 16] | Plant response rating, Ducksalad [10] | Plant response rating, Sedge, Umbrella [11]
0: Plant response rating, Bromegrass, Downy [3, 15] | Plant response rating, Bromegrass, Downy [3, 18] | Bromegrass, Downy plant response rating [3, 16] | Plant response rating, Wheat [6, 12] | Plant response rating, Wheat [6, 15] | Wheat plant response rating [6, 16] | Plant response rating, Cupgrass, Woolly [7, 15] | Plant response rating, Barnyardgrass [9]
45: Plant response rating, Cupgrass, Woolly [7, 18] | Plant response rating, Nutsedge, Yellow [8, 15]
70: Plant response rating, Bromegrass, Downy [3, 13]
95: Plant response rating, Surinam Grass [1, 13] | Plant response rating, Surinam Grass [1, 14] | Plant response rating, Bermudagrass [2, 13] | Plant response rating, Bermudagrass [2, 14] | Plant response rating, Lambsquarters [4, 13] | Plant response rating, Lambsquarters [4, 14] | Plant response rating, Pigweed [5, 13] | Cupgrass, Woolly plant response rating [7, 17]
